# Test results published in article PMC3984256, “A PCNA-Derived Cell Permeable Peptide Selectively Inhibits Neuroblastoma Cell Growth” (PLoS ONE, 2014).
# Where a SMILES comes first, the peptide text is derived from it. [ ]: non-standard residue; d: D form.
# How the values were obtained:
# [1] = system: panel of NB cell lines; format: cell-based, human; settings: 72 h
# Method: The human NB cell lines, SK-N-DZ, SK-N-BE(2)c, SK-N-AS, SK-N-SH, and SK-N-FI were obtained from the American Type Culture Collection (Rockville, MD). Cells were maintained in DMEM with 10% fetal bovine serum (FBS), 100 units/ml penicillin, and 100 µg/ml streptomycin in the presence of 5% CO2 at 37°C. Human PBMCs from a healthy donor were purchased from Sanguine BioSciences (Valencia, CA) and grown in RPMI1640 with10% FBS, 100 units/ml penicillin, 100 µg/ml streptomycin, and 10 ng/ml IL-2 in the presence of 5% CO2 at 37°C. Human embryonic progenitor cell line 7SM0032 was acquired from Millipore (Billerica, MA) and grown in the hEPM-1 Media Kit purchased from the same company.
# To measure cell growth, cells were seeded at 3×10^4/ml. After being allowed to attach overnight, cells were treated with various concentrations of the peptides for 72 h. Cell growth was measured by the CellTitor-Glo assay (Promega, Madison, WI) according to manufacturer's instruction. To measure apoptosis, cells were seeded at 1×10^5/ml onto a chamber slide. Once attached, cells were treated with the peptides for 48 h. Cells were fixed and analyzed by a TUNEL assay using the TMR red in situ cell death detection kit (Roche Diagnostics, Indianapolis, IN).
# [2] = system: intracellular LIGI or FEN1 level; assay: Western blot of intracellular LIGI or FEN1 level (data not shown); format: cell-based
# [3] = system: SV40 T-antigen-dependent DNA replication, nuclear extracts from SK-N-BE(2)c cells; assay: SV40 T-antigen-dependent DNA replication assay in vitro; format: biochemical; settings: nuclear extracts incubated with peptide 20 min; 32P dCTP incorporation, normalized to PBS, triplicates
# Method: The assay was performed essentially as described, except that nuclear extracts from SK-N-BE(2)c cells were used in the assay.
# Figure 3 Inhibition of DNA replication and induction of S-phase arrest and apoptosis by R9-caPep. a) SK-N-BE(2)c cells were pulsed in 10 µM of BrdU for 30 min after being pre-treated with R9-caPep or R9-srbPep for 7.5 h. The relative abundances of BrdU-positive cells in triplicates were averaged and graphed plus/minus standard deviations. b) Nuclear extracts from SK-N-BE(2)c cells were incubated with the indicated concentrations of R9-caPep (grey bars) or R9-srbPep (black bars) for 20 min. SV40 T-antigen was then added to the nuclear extracts along with premixed reaction buffer containing ^32P dCTP. […] The polymerized radioactivity was measured by a scintillation counter. The T-antigen-dependent incorporation of ^32P dCTP was calculated by subtracting T-antigen-independent radioactivity from the total radioactivity and was normalized to the T-antigen-dependent radioactivity in PBS-treated samples. Triplicates of normalized T-antigen-dependent radioactivity for each treatment condition were averaged and graphed plus/minus standard deviations. c) SK-N-BE(2)c and non-malignant 7SM0032 cells were fixed and stained with propidium iodide (PI) after being treated with the indicated concentrations of R9-caPeptide for 48 h. […] Cells were fixed and analyzed by a TUNEL assay. […]
# [4] = system: SK-N-BE(2)c cells; assay: Cell cycle analysis by PI flow cytometry, SK-N-BE(2)c; format: cell-based, human
# Method: Cells were seeded at 1×10^5/ml. Once attached, cells were treated with or without R9-caPep for 48 hours. Cells were fixed in 60% ethanol and stained with propidium iodide (PI). The cellular PI fluorescence intensity was determined by flow cytometry. The flow cytometry data were analyzed by the FlowJo program to model various cell populations.
structure (smiles),measurement,setting,value
CC[C@H](C)[C@H](NC(=O)CNC(=O)[C@H](CC(C)C)NC(=O)[C@H](CS)NC(=O)[C@H](CS)NC(=O)[C@@H](CCCNC(=N)N)NC(=O)[C@@H](CCCNC(=N)N)NC(=O)[C@@H](CCCNC(=N)N)NC(=O)[C@@H](CCCNC(=N)N)NC(=O)[C@@H](CCCNC(=N)N)NC(=O)[C@@H](CCCNC(=N)N)NC(=O)[C@@H](CCCNC(=N)N)NC(=O)[C@@H](CCCNC(=N)N)NC(=O)[C@H](N)CCCNC(=N)N)C(=O)N1CCC[C@H]1C(=O)N[C@@H](CCC(=O)O)C(=O)N[C@@H](CCC(N)=O)C(=O)N[C@@H](CCC(=O)O)C(=O)N[C@@H](Cc1ccc(O)cc1)C(=O)O [R9-caPep] (H-[dR][dR][dR][dR][dR][dR][dR][dR][dR]CCLGIPEQEY-OH; N-terminus and C-terminus assumed),IC50,[1],10 to 32 µM
same,sensitivity of MYCN-amplified vs. non-amplified NB cell lines,[1]; CellTiter-Glo,NB cell lines with MYCN amplification were uniformly more sensitive to R9-caPep than NB cell lines without MYCN amplification
same,intracellular LIGI or FEN1 level,[2],didn't affect intracellular LIGI or FEN1 level
same,SV40 T-antigen-dependent DNA replication,[3],inhibited SV40 T-antigen-dependent DNA replication in vitro
same,cell cycle arrest,"[4]; NB cells (SK-N-BE(2)c), 48 h, 20 or 40 µM",caused S-phase arrest in NB cells
same,apoptosis: sub-G1 cell population,"[4]; SK-N-BE(2)c, 40 µM, 48 h",rise of a sub-G1 cell population
same,"relative abundance of cells in S-phase, longer treatment","[4]; treatment longer than 6 h (Fig. 3c, 48 h)",increased the relative abundance of cells in S-phase
